What is called melting point is the temperature, or range, at which the solid turns liquid.

The compound `O=Cc1nn(-c2ccccc2)c2c1CCC2` came in with a melting point of 108 to 109 °C.
The result for `CNc1c(OC)cc(C(=O)CS(C)(=O)=O)cc1OC` reads 98 to 99 °C; that for `COC(=O)c1ccc(OCCNC(=O)C2Cc3ccccc3N2S(=O)(=O)c2ccc(-c3ccc(F)cc3C)cc2)cc1F` (centres undefined), 66 to 75 °C.
The result for `CSc1ncc2cc(Oc3c(F)cccc3F)c(=O)n(C)c2n1` reads 247 to 251 °C; that for `CCNC(=O)NC1CCCc2sccc21` (centres undefined), 184 to 188 °C; that for `OCCn1nnnc1S`, 135 to 137 °C.
Next, `CC(C)Nc1nc(C(=O)O)cn1C`: 247 °C; `CC(C)(C)NCCCOc1ccccc1Cc1cccc2[nH]ccc12`: 96 °C; `CC1(C)c2c(ccc3cc(C#N)c(Cn4cncn4)cc23)OC1O` (centres undefined): 219 to 222 °C.
Consider `CC(=O)c1cccc2c1NCC2`, for which the melting point is 83 to 85 °C.
The compound `O=C(O)C1=Cc2cccc(-c3ccccc3)c2OC1C(F)(F)F` (centres undefined) gave a melting point of 172 to 175 °C.
The result for `COc1ccc(-c2ccc3c(c2)C=C(C(=O)Nc2ccc(CN(C)C4CCOCC4)cc2)CCS3(=O)=O)cc1` reads 247 to 249 °C; that for `CCCc1c(OCC(O)CSc2ccc(CC(=O)O)c(Cl)c2Cl)ccc(C(C)=O)c1O` (centres undefined), 151 to 153 °C.
In turn, `CCOC(=O)C1CCc2cc(O)c(C(C)=O)cc2C1` (centres undefined) registered a melting point of 73 to 75 °C.
The compound `NC(=NCC(F)(F)F)Nc1ccnc(CSCCNc2nc(N)n[nH]2)n1` yielded a melting point of 199 to 201 °C.
Next, `Cc1ccc(C(=O)NC(NC(=S)Nc2cccc(C(F)(F)F)c2F)C(F)(F)F)cc1` (centres undefined): 179 to 181 °C; `CC(O)C1CCC2C3CCC4=CC(O)CCC4(C)C3CCC12C` (centres undefined): 169 to 170 °C.
Next, `CC(C)C[C@H](NC(=O)OCC1c2ccccc2-c2ccccc21)C(=O)OC(C)(C)C`: 183 to 184 °C; `COc1cc(NC(=O)Nc2ccccc2)c(O)c(OC)c1OC`: 123 to 125 °C; `C[C@@H]1OC(=O)N(C(=O)O)[C@H]1c1ccc(F)c(F)c1` (relative stereo): 80 to 83 °C.
The result for `CC(=S)NCC1CC(c2ccc(N3CCSCC3)c(F)c2)=NO1` (centres undefined) reads 219 to 220 °C; that for `COc1cc(N[C@H]2CC[C@H](NC3CCCC3)CC2)c(Cl)cc1C(N)=O`, 169 to 171 °C.
`O=C(O)c1ccc2c(c1)C(c1ccccc1Cl)=NC=C1N=NC(C3CC3)N12` (centres undefined) showed a melting point of 170 to 175 °C.
With `FC(F)(F)Sc1c(-c2ccc(Cl)cc2)[nH]c(Br)c1Br`, the melting point lay in the range of 107 to 113 °C.
Take `Cn1ccnc1C(=O)Nc1ccc(-n2nc(C(F)(F)F)cc2C2CC2)cc1`: the melting point is 132 to 134 °C.
`CSC1=C(c2ccc(O)cc2)C(=O)c2ccc(O)cc21` had a melting point of 108 to 110 °C.
The result for `CCC(CC)Nc1cc(C)nc2c1CCC(=O)N2c1c(C)cc(C)cc1C` reads 124 to 126 °C; that for `CCOC(=O)C1=C(C)NC(N=C(C)N(C)C)=C(C(=O)OCC)C1c1ccccc1Cl` (centres undefined), 181 °C; that for `CCN1c2ncccc2C(=O)N(C)c2ccc(O)nc21`, 215 to 218 °C.
The result for `CC1(C)CC(C)(C)CC(CCCc2ccccc2)(NC(=O)CCl)C1` reads 83 to 85 °C.
The result for `CC#CCCCCCCCCCCCC` reads 36 to 37 °C.
Compound `COc1cccc(-c2cc(O)c(SCc3ccccc3)c(=O)o2)c1` showed a melting point of 146 to 147 °C.
The compound `CSc1cc(-c2ccc(C(F)(F)F)cc2)nc(-c2cccc(C(F)(F)F)c2)c1` came in with a melting point of 98.5 °C.
The result for `O=C(O)c1ccc(S(F)(F)(F)(F)F)cc1` reads 188 to 190 °C; that for `COc1ccccc1NC(=O)C1=C(O)c2ccc3ccccc3c2S(=O)(=O)N1C`, 198 to 200 °C.
For the compound `COc1ccnc2c1C(=O)CC(c1ccccc1)C2` (centres undefined), the melting point was 130 to 131 °C.
Next, `CCOC(=O)C1=C(C)NC(C)=C(C(=O)OCC)C1c1c(C)sc2ccccc12`: 191 to 193 °C; `CCCCOC1(c2nc(-c3ccc(F)cc3)c(-c3ccncc3)[nH]2)CCN(C)CC1`: 177 °C.
Take `CSCC(C)(C)NC(=O)c1c(I)cccc1C(=O)Nc1ccc(Cn2nc(C(F)(F)F)cc2C(F)(F)F)cc1C`: the melting point was 83 to 87 °C.
Next, `C=CCOc1ccc(C2C(=O)Oc3c2cc(C(C)(C)C)cc3C(C)(C)C)cc1` (centres undefined): 112 to 114 °C; `COc1ccc(Oc2cnccc2N)c2ccccc12`: 126 to 129 °C.
Regarding `CCOc1ccc(C2=NN(CCCCCC(=O)O)C(=O)[C@H]3CC=CC[C@@H]23)cc1OCC` (relative stereo), the melting point fell in the range of 97 to 99 °C.
`CCCCCCC(O)c1ccc2cc(OC)ccc2c1` (centres undefined) gave a melting point of 71 to 74 °C.
Turning to `CCCCCCCCCCCCC[C@@H](CC(N)=O)OC(=O)[C@H](CCCC(=O)OCc1ccccc1)NC(=O)c1cnc2ccccc2c1`, the melting point was in the range of 85 to 87 °C.
Next, `N#CC1=C2C(=NC1=O)c1c(OCc3cccs3)ccc3cccc2c13`: 241 to 243 °C.
For the compound `NC(=O)N1CCN(c2nn(-c3ccccc3F)c3ccccc23)CC1`, the melting point lay in the range of 148 to 150 °C.
The result for `CCCCCCCCCCCCCCCCCCN(CCCCCCCCCCCCCCCCCC)c1ccc(C=Cc2ccc(S(C)(=O)=O)cc2)cc1` reads 75 to 76 °C; that for `CCCN(Cc1ccc(-c2ccccc2-c2nnnn2C(c2ccccc2)(c2ccccc2)c2ccccc2)cc1)c1ncncc1C(=O)OCC`, 100 to 103 °C.
Next, `CC(C)n1nc(CS(C)=O)cc1O` (centres undefined): 69 °C; `CN(C)c1nc(=O)n(-c2cc(OCc3ccccc3)c(Cl)cc2F)c(=O)n1C`: 193 to 194 °C; `CN1CCC(c2c(O)cc(O)c3c(=O)cc(Sc4ccccc4)oc23)C(O)C1` (centres undefined): 82 °C.
The result for `O=S(Sc1ccccc1)c1ccccc1` (centres undefined) reads 69 to 70 °C.
The compound `CCC(O)c1cc2cc(O)c(Cl)c(Cl)c2s1` (centres undefined) registered a melting point of 145 to 146 °C.
Next, `CS(=O)(=O)c1ccc(-c2cnn(Cc3ccc(Cl)s3)c(=O)c2-c2ccc(F)cc2)cc1`: 139 to 141 °C; `CCCCNC1CC(C)(C)N(c2nc(N3CCOCC3)nc(N3CCOCC3)n2)C(C)(C)C1`: 82 to 87 °C; `Cc1oc(-c2ccccc2)nc1CCSc1ccc(OC(C)(C)C(=O)O)cc1`: 104 to 106 °C.
The result for `Cc1ccc(CC(=S)N2CCOCC2)cc1` reads 182 to 185 °C; that for `CCCCCN(CCCCC)CCCOC(=O)c1ccc2c(c1)-c1ccc(C(=O)OCCCN(CCCCC)CCCCC)c3cccc-2c13`, 148 to 151 °C.
The result for `CC(=O)OCC(=O)C1=CCC2C3CCC4=CC(=O)C=CC4(C)C34OC4CC12C` (centres undefined) reads 164 to 165 °C; that for `COC(=O)c1ccc(C=Cc2ccc(OC)cc2)nc1`, 170 °C.
In the case of `CNC(=O)CN1CCC(C(O)(c2ccc(F)cc2)c2ccc(F)cc2)CC1`, the melting point lay within 122 to 124 °C.
Next, `Cc1cc(S(F)(F)(F)(F)F)ccc1N`: 65 to 66 °C; `O=c1c2cc(F)ccc2nc(CSc2ncnc3[nH]cnc23)n1-c1ccccc1Cl`: 233 °C; `Cc1nc2c(N)nc3ccccc3c2n1CCCNS(C)(=O)=O`: 236 to 238 °C.
With `CCCCc1nc2c(N)nc3ccccc3c2n1OC`, the melting point was 197 to 199 °C.
`CC(C)(C)C(=O)c1ccc(CC(=O)O)cc1` had a melting point of 111 to 112 °C.
Next, `c1ccc2c(c1)OCC(c1ncc[nH]1)O2` (centres undefined): 225 to 227 °C; `CC(=O)Nc1ncc(C#Cc2cnn3c(C(F)(F)F)cc(-c4ccc(C(F)(F)F)cc4)nc23)cn1`: 293 °C; `CSc1cnc(NC(=O)c2ccccc2OC(C)=O)s1`: 145 to 147 °C.
The result for `CCCCCCCCSCCSc1nc(N)n[nH]1` reads 85 to 86 °C; that for `O=C(NCC1CCCC1)NCC1CCCC1`, 162 to 164 °C.
The result for `Cc1c(Cl)cc(C(C)(C)C)c(O)c1C(=O)Oc1ccccc1` reads 68 to 69 °C; that for `CCOC(=O)N1CC[C@@H](N2C(=O)c3ccccc3C2=O)[C@H](O)C1` (relative stereo), 128 °C.
`COc1cccc(-c2coc3ccc(-c4nnc(C)o4)cc23)c1`: the melting point lay in the range of 127 to 128 °C.
The result for `CCN1CC(Cc2ccc(C(=O)O)cc2OC)c2cc(NC(=O)CC3CCCC3)ccc21` (centres undefined) reads 183 to 186 °C; that for `CCOC(=O)C(=NO)C(=O)Nc1ccc(Cl)cc1C(=O)c1ccccc1`, 98 to 105 °C.
The result for `Clc1cc(CCc2ccccn2)c2oc(-c3ccc4[nH]nnc4c3)nc2c1` reads 242 to 244 °C; that for `COc1cc2c(c(OC)c1OC)CC(N1CCC(n3c(=O)[nH]c4ccccc43)CC1)C2=O` (centres undefined), 197 to 199 °C; that for `COc1ccccc1-c1ccc2ccc(N)nc2n1`, 182 °C.
The result for `CC(C)(C)OC(=O)N1CCNC(=O)C1Sc1ccccc1` (centres undefined) reads 138 to 140 °C; that for `CCOc1ccc2c(c1)cc1n2CCC1`, 101 to 102 °C.
As for `O=C(O)[C@H](Cc1ccccc1)NC(=S)Cc1ccc([N+](=O)[O-])cc1`, the melting point lay in the range of 149 to 150 °C.
The result for `CCN(CC)CCNC(=O)c1cnc2cc(I)ccc2n1` reads 60 to 62 °C.
`CC(C)(C)OC(=O)CC[C@@H](NC(=O)OCc1ccccc1)C(N)=O`: the melting point fell in the range of 138 to 140 °C.
Next, `Cc1nc(-c2ccc(C#N)cc2)sc1C(=O)N[C@H](C)[C@](O)(Cn1cncn1)c1ccc(C(F)(F)F)cc1` (relative stereo): 105 to 111 °C; `CC(C)(C)OC(=O)NCCCCCCO`: 36 to 37 °C.
Next, `Cc1c(Br)cc(C(C)(C)C)c(O)c1C1=Nc2cc(Cl)ccc2S(=O)(=O)N1`: 270 to 271 °C; `CN(C)C(=S)C(O)c1ccc(OCc2ccccc2)cc1` (centres undefined): 104 to 107 °C.
Next, `Cc1ccc(S(=O)(=O)Sc2cc(C)c(NC(=O)OC(C)(C)C)cc2C(C)(C)C)cc1`: 106 to 108 °C.

Source of the values: a melting point compilation (Tetko et al.; mined from patent text by program, amines drawn as free bases though some values may be those of a salt).
